In patent EP1351977B1, “ANTIMICROBIAL PSEUDOPEPTIDES” (INSTITUT NATIONAL DE LA RECHERCHE AGRONOMIQUE (INRA), priority 2001, dated 2004):
Like-named read-outs stand apart in the source and are kept apart here. Ends that are not written are not given here.

Assays:
Assay type in all cases: cell-based
Alternaria brassicae = assay: Antifungal growth inhibition test in liquid medium
Botrytis cinerea myc = assay: Antifungal growth inhibition test in liquid medium
Cladosporium myc = assay: Antifungal growth inhibition test in liquid medium
[1] = system: Helminthosporium teres sp; assay: Antifungal growth inhibition test in liquid medium
Rhizoctonia solani myc = assay: Antifungal growth inhibition test in liquid medium
Fusarium culmorum sp = assay: Antifungal growth inhibition test in liquid medium
Source text: (§1) Les composés des pics 5, 7 et 8 de la figure 1 ont été testées vis-à-vis d'un ensemble de champignons phytopathogènes. Trois doses (10, 20, et 40 ppm) ont été employées pour chacun des composés.
(§2) L'activité antifongique a été détectée par un test d'inhibition de croissance en milieu liquide. Les spores des champignons à tester ont été mises en suspension dans un milieu de culture de type "Pomme de terre-Glucose". De préférence, on utilise 12 g de milieu Potato Dextrose Broth (Difco) pour 1 litre d'eau déminéralisée. Deux antibiotiques ont été rajoutés au milieu de culture: la tétracycline (concentration finale de 10 µg/ml) et la céfotaxime (100 µg/ml). On dépose 10 µl de chaque composé à tester dans des plaques de microtitration en présence de 90 µl de milieu de culture contenant les spores (à une concentration finale de 10^4 spores/ml). L'incubation a été réalisée en chambre humide à 30°C durant 48 heures. La croissance fongique a été observée au microscope photonique après 24 h et quantifiée après 48 heures par mesure de l'absorbance à 600 nm à l'aide d'un spectrophotomètre lecteur de plaque de microtitration. L'activité des composés contre les champignons phytopathogènes est exprimée par un pourcentage d'inhibition de croissance correspondant à 100 x (1 - absorbance avec produit/ absorbance du témoin sans produit), l'absorbance étant mesurée à 600 nm, 5 jours après le début de l'expérience.

Phytophthora myc = assay: Antifungal growth inhibition test in liquid medium
Source text: as §1, §2

Piricularia oryzae sp = system: Piricularia oryzae sp
Septoria tritici sp = assay: Antifungal growth inhibition test in liquid medium
Escherichia coli CIP548 = assay: Bacterial growth inhibition test in Petri dish (solid medium), MIC; settings: MIC extrapolated from inhibition diameter vs log10 concentration
Klebsiella pneumoniae = assay: as above; settings: MIC extrapolated from inhibition diameter vs log10 concentration
[2] = system: Proteus vulgaris CIP58.60; assay: as above; settings: MIC extrapolated from inhibition diameter vs log10 concentration
Serratia entomophila = assay: as above; settings: MIC extrapolated from inhibition diameter vs log10 concentration
Staphylococcus aureus = assay: as above; settings: MIC extrapolated from inhibition diameter vs log10 concentration
[3] = system: Staphylococcus epidermidis; assay: as above; settings: MIC extrapolated from inhibition diameter vs log10 concentration
Streptococcus Gr. D = assay: as above; settings: MIC extrapolated from inhibition diameter vs log10 concentration
Pseudomonas fluorescens = assay: as above; settings: MIC extrapolated from inhibition diameter vs log10 concentration
Bacillus megaterium = assay: as above; settings: MIC extrapolated from inhibition diameter vs log10 concentration
bactériophage lambda = assay: Antiviral test, lysis plaque method in Top-Agar on E. coli SURE
Description: L'activité antivirale des pseudopeptides selon l'invention a été démontrée vis-à-vis du bactériophage lambda. Le bactériophage λ-ZAP est naturellement lytique sur la souche E. coli SURE (Stratagène). Cette activité lytique est mesurable par la méthode des plages de lyse en gélose Top-Agar. 2 µl d'une suspension de virus à 3,5 .10^5 pfu/ml dans du tampon SM ont été mis en présence de 2 µl du pseudopeptides compris dans le pic 8 à 0,5 mg/ml dans de l'eau pure. Après 15 min d'incubation à 37°C, la suspension est mélangée à 3,5 ml de Top-Agar pré-ensemencée avec E. coli SURE à 2 .10^5 cfu/ml. La concentration de pseudopeptide dans la gélose Top-Agar est inférieure à la CMI vis-à-vis de E. coli SURE. Le mélange est coulé en boîte de Pétri puis mis à incuber à 37°C pendant 12h. Le résultat est donné dans le tableau 6.

With “Composé 8: pseudopeptide du pic n° 8 de Xenorhabdus nematophilus F1; Famille 1: Lys Lys Lys Lys Lys Gly; 1066 Da; structure en Figure 2 (KKKKKG; also: pseudopeptide modifications)” the “pourcentage d'inhibition de croissance” value (Alternaria brassicae; 10 ppm) was 82%, the “pourcentage d'inhibition de croissance” value (Alternaria brassicae; 20 ppm) was 82% and the “pourcentage d'inhibition de croissance” value (Alternaria brassicae; 40 ppm) was 83%. For the same substance, the “pourcentage d'inhibition de croissance” value (Botrytis cinerea myc; 10 ppm) was 40%, the “pourcentage d'inhibition de croissance” value (Botrytis cinerea myc; 20 ppm) was 70% and the “pourcentage d'inhibition de croissance” value (Botrytis cinerea myc; 40 ppm) was 93%. The “pourcentage d'inhibition de croissance” value (Cladosporium myc; 10 ppm) was 70%, the “pourcentage d'inhibition de croissance” value (Cladosporium myc; 20 ppm) was 92% and the “pourcentage d'inhibition de croissance” value (Cladosporium myc; 40 ppm) was 91%. The “pourcentage d'inhibition de croissance” value ([1]; 10 ppm) was 76%, the “pourcentage d'inhibition de croissance” value ([1]; 20 ppm) was 94% and the “pourcentage d'inhibition de croissance” value ([1]; 40 ppm) was 92%. The “pourcentage d'inhibition de croissance” value (Rhizoctonia solani myc; 10 ppm) was 56%, the “pourcentage d'inhibition de croissance” value (Rhizoctonia solani myc; 20 ppm) was 91% and the “pourcentage d'inhibition de croissance” value (Rhizoctonia solani myc; 40 ppm) was 93%. The “pourcentage d'inhibition de croissance” value (Fusarium culmorum sp; 10 ppm) was 96%, the “pourcentage d'inhibition de croissance” value (Fusarium culmorum sp; 20 ppm) was 96% and the “pourcentage d'inhibition de croissance” value (Fusarium culmorum sp; 40 ppm) was 96%. The “pourcentage d'inhibition de croissance” value (Phytophthora myc; 10 ppm) was 76%, the “pourcentage d'inhibition de croissance” value (Phytophthora myc; 20 ppm) was 78% and the “pourcentage d'inhibition de croissance” value (Phytophthora myc; 40 ppm) was 77%. For the same substance, the “pourcentage d'inhibition de croissance” value (Piricularia oryzae sp; 10 ppm) was 30%, the “pourcentage d'inhibition de croissance” value (Piricularia oryzae sp; 20 ppm) was 35% and the “pourcentage d'inhibition de croissance” value (Piricularia oryzae sp; 40 ppm) was 45%. For the same substance, the “pourcentage d'inhibition de croissance” value (Septoria tritici sp; 10 ppm) was 87%, the “pourcentage d'inhibition de croissance” value (Septoria tritici sp; 20 ppm) was 88% and the “pourcentage d'inhibition de croissance” value (Septoria tritici sp; 40 ppm) was 86%. The CMI (Escherichia coli CIP548) was 7,5 µg/ml, the CMI (Klebsiella pneumoniae) was 15 µg/mL and the CMI [2] was 100 µg/mL. The CMI (Serratia entomophila) was 30 µg/mL, the CMI (Staphylococcus aureus) was 15 µg/mL and the CMI [3] was 30 µg/mL. The CMI (Streptococcus Gr. D) was 200 µg/mL, the CMI (Pseudomonas fluorescens) was 3 µg/mL and the CMI (Bacillus megaterium) was 1,5 µg/ml. The “inhibition du cycle lytique du bactériophage lambda” value (bactériophage lambda; 250 µg/ml) was > 95% and the “Nbre de pfu/boîte” value (bactériophage lambda; in presence of pseudopeptide, 15 min pre-incubation at 37°C with phage, control without pseudopeptide 700 ±50) was 40 ± 5 pfu/boîte.
